Experimental data taken from US20250306007A1, “DETECTING APOPTOTIC BODIES BY IMPEDANCE CYTOMETRY AS AN INDICATOR OF DRUG SENSITIVITY” (University of Virginia Patent Foundation, priority 2022, published 2025).

How the values were obtained:
[1] = test system: highly tumorigenic cells derived from the xenograft 122 (patient-derived tumor cells); experiment: cell proliferation assays comparing phenotypes over drug concentration ranges; assay type: cell-based
Text: FIG. 1B is a schematic example of a progression of drug resistance onset of in vitro cancer cells. In an example, a tumor tissue sample 120 can be collected from a cancer patient 118 such as via surgical resection or biopsy. Cells from the tumor tissue sample 120 can be propagated, e.g., within immunocompromised mice as a xenograft 122. […] Once propagated, the line established from the xenograft 122 can be maintained in culture for treatment from a chemotherapeutic drug 124, such as gemcitabine, a fluorouracil, doxorubicin, or any other drug used in the treatment of cancer. In an example involving gemcitabine treatment on highly tumorigenic cells derived from the xenograft 122, the range of gemcitabine levels that lead to drug sensitivity can be assessed by cell proliferation assays 126. Depending on the drug treatment, the in vitro cancer cells can be drug resistant, e.g., with varying degrees of resistance to one or more drugs. The CAFs can also be further propagated in vitro and subjected to additional drug treatment(s) to further examine the drug resistance of the cancer cells. […] These structures can be associated with apoptosis-induced cell disassembly, which generates ABs of particular composition and structure. These phenotypes can be used as a model to help identify and stratify ABs in subsequent patient-derived tumor cells using impedance cytometry techniques based on comparison of their single-particle sensitivity levels.

[2] = test system: cancer cells lifted from the culture (gemcitabine-treated pancreatic tumor cultures); experiment: impedance cytometry of cancer cell samples exposed to chemotherapeutic drug; assay type: cell-based; conditions: about 48 hours, FIG. 2A/2B
Text: Individual cells from the biological sample or culture 102 can flow (e.g., propelled via a focusing flow channel of the impedance cytometry device 104) through the main channel 114 of the test cell 106 at a specified throughput (e.g., within a range of about 200 cells/s to about 500 cells/s) past electrodes or microelectrodes under an AC electric field applied over a specified range of frequencies (e.g., within a range between about 0.5 megahertz (MHz) to 50 MHz). In an example, an impedance of respective detected specimen can be measured by the measurement circuitry 108 concurrently or simultaneously using a plurality of discrete frequencies, e.g., a reference frequency within a range of about 15 MHz and about 20 MHz, and one or more analysis frequencies within a specified analysis frequency range. […] The electrophysiology of the cancer cells lifted from the culture after various gemcitabine treatment conditions can be measured by impedance cytometry to determine impedance magnitude (|Z|) and impedance phase (ϕZ) at a low (0.5 MHz) and a high frequency (18 MHz) for analyzing individual cellular 204 and/or sub-cellular 202 events. […] At a specified threshold frequency (e.g., at about 18 MHz), the impedance signal can be effectively determined by the dielectric properties of the cell interior, rather than properties the cell exterior. […]

`Nc1ccn([C@@H]2O[C@H](CO)[C@@H](O)C2(F)F)c(=O)n1` [chemotherapeutic drug 124, gemcitabine] was tested, and the “phenotype (apoptosis-induced cell disassembly structures)” value (“phenotype” below) ([1]; at about 0.01 μg mL^−1) was “generation of blebs of varying size on the plasma membrane”, the “phenotype” value ([1]; at about 0.1 μg mL^−1) was “presence of large protrusions” and the “phenotype” value ([1]; at about 1 μg mL^−1) was “emergence of beaded structures”. For the same compound, the “sub-cellular events (release of ABs)” value ([2]; increasing drug concentration 0.01, 0.1, 1 μg mL^−1 vs untreated) was “rise in sub-cellular events 202” and the “impedance phase at 18 MHz (ϕZ18 MHz), cellular and sub-cellular populations” value ([2]; increasing drug concentration) was “downward shift in ϕZ18 MHz”.
